Measurements from PubChem BioAssay AID2060495 (Molecular Pharmacology Branch, DTP, NCI, 2025).

Test system: 521955-158-R2-J5-PDC complex spheroid viability
Assay: Anticancer human tumor 521955-158-R2-J5-PDC patient-derived pancreatic carcinoma cell line growth inhibition [GQUAD]
Details: for IC50: curve of first compound; for viability, T/C: stronger effect = lower value
How it was run: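 Viability of tumor cells grown as complex spheroids with endothelial and stromal cells, exposed to drug combinations. Top concentration at or near clinical Cmax (else 10 microM), diluted in half-log increments.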

[1] = second compound 0.0316 µM, first compound 0.0316 µM
[2] = second compound 0.0316 µM, first compound 0.1 µM
[3] = second compound 0.0316 µM, first compound 0.316 µM
[4] = second compound 0.0316 µM, first compound 1 µM
[5] = second compound 0.0316 µM, first compound 3.16 µM
[6] = second compound 0.0316 µM, first compound 10 µM
[7] = second compound 0.1 µM, first compound 0.0316 µM
[8] = second compound 0.1 µM, first compound 0.1 µM
[9] = second compound 0.1 µM, first compound 0.316 µM
[10] = second compound 0.1 µM, first compound 1 µM
[11] = second compound 0.1 µM, first compound 3.16 µM
[12] = second compound 0.1 µM, first compound 10 µM
[13] = second compound 0.316 µM, first compound 0.0316 µM
[14] = second compound 0.316 µM, first compound 0.1 µM
[15] = second compound 0.316 µM, first compound 0.316 µM
[16] = second compound 0.316 µM, first compound 1 µM
[17] = second compound 0.316 µM, first compound 3.16 µM
[18] = second compound 0.316 µM, first compound 10 µM
[19] = second compound 1 µM, first compound 0.0316 µM
[20] = second compound 1 µM, first compound 0.1 µM
[21] = second compound 1 µM, first compound 0.316 µM
[22] = second compound 1 µM, first compound 1 µM
[23] = second compound 1 µM, first compound 3.16 µM
[24] = second compound 1 µM, first compound 10 µM
[25] = second compound 3.16 µM, first compound 0.0316 µM
[26] = second compound 3.16 µM, first compound 0.1 µM
[27] = second compound 3.16 µM, first compound 0.316 µM
[28] = second compound 3.16 µM, first compound 1 µM
[29] = second compound 3.16 µM, first compound 3.16 µM
[30] = second compound 3.16 µM, first compound 10 µM
[31] = second compound 10 µM, first compound 0.0316 µM
[32] = second compound 10 µM, first compound 0.1 µM
[33] = second compound 10 µM, first compound 0.316 µM
[34] = second compound 10 µM, first compound 1 µM
[35] = second compound 10 µM, first compound 3.16 µM
[36] = second compound 10 µM, first compound 10 µM
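Further: spheroids exposed to agents for one week before reading.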
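Wherever viability, T/C is given: 100% = DMSO vehicle control viability.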

`C#Cc1c(F)ccc2cc(O)cc(-c3ncc4c(N5CC6CCC(C5)N6)nc(OCC56CCCN5CC(F)C6)nc4c3F)c12` (stereo unspecified) + Cc1cnc(CNC(=O)c2c(=O)c3ccc(N4CCCN(C)CC4)nc3n3c2sc2ccccc23)cn1 was tested, and the IC50 (second compound 0.0316 µM) was less than 31.6 nM, the IC50 (second compound 0.1 µM) was less than 31.6 nM and the IC50 (second compound 0.316 µM) was less than 31.6 nM. It also gave an IC50 (second compound 1 µM) of less than 31.6 nM, an IC50 (second compound 3.16 µM) of less than 31.6 nM and an IC50 (second compound 10 µM) of less than 31.6 nM. It also gave a viability, T/C [1] of 35.4%, a viability, T/C [2] of 31.3% and a viability, T/C [3] of 26.2%. The viability, T/C [4] was 19.1%, the viability, T/C [5] was 17.9% and the viability, T/C [6] was 13.9%. The viability, T/C [7] was 24.5%, the viability, T/C [8] was 26.6% and the viability, T/C [9] was 21.4%. The viability, T/C [10] was 18.3%, the viability, T/C [11] was 17.2% and the viability, T/C [12] was 13.3%. For the same compound, the viability, T/C [13] was 19.3%, the viability, T/C [14] was 20% and the viability, T/C [15] was 18.3%. The viability, T/C [16] was 16.1%, the viability, T/C [17] was 14.1% and the viability, T/C [18] was 11.5%. For the same compound, the viability, T/C [19] was 11.3%, the viability, T/C [20] was 12.6% and the viability, T/C [21] was 10.9%. It also gave a viability, T/C [22] of 8.41%, a viability, T/C [23] of 9.79% and a viability, T/C [24] of 5.56%. The viability, T/C [25] was 2.92%, the viability, T/C [26] was 0.7% and the viability, T/C [27] was 2.89%. The viability, T/C [28] was 0.31%, the viability, T/C [29] was 0.11% and the viability, T/C [30] was 0.08%. For the same compound, the viability, T/C [31] was 0.08%, the viability, T/C [32] was 0.7% and the viability, T/C [33] was 0.19%. It also gave a viability, T/C [34] of 0.15%, a viability, T/C [35] of 0.18% and a viability, T/C [36] of 0.16%.

`CC(=O)O[C@H]1C(=O)[C@@]2(C)[C@H]([C@H](OC(=O)c3ccccc3)[C@]3(O)C[C@H](OC(=O)[C@H](O)[C@@H](NC(=O)c4ccccc4)c4ccccc4)C(C)=C1C3(C)C)[C@]1(OC(C)=O)CO[C@@H]1C[C@@H]2O` + Cc1cnc(CNC(=O)c2c(=O)c3ccc(N4CCCN(C)CC4)nc3n3c2sc2ccccc23)cn1 showed an IC50 (second compound 0.0316 µM) of less than 31.6 nM, an IC50 (second compound 0.1 µM) of less than 31.6 nM and an IC50 (second compound 0.316 µM) of less than 31.6 nM. For the same compound, the IC50 (second compound 1 µM) was less than 31.6 nM, the IC50 (second compound 3.16 µM) was less than 31.6 nM and the IC50 (second compound 10 µM) was less than 31.6 nM. It also gave a viability, T/C [1] of 23.3%, a viability, T/C [2] of 14.8% and a viability, T/C [3] of 11.8%. The viability, T/C [4] was 13.7%, the viability, T/C [5] was 11.2% and the viability, T/C [6] was 12.1%. It also gave a viability, T/C [7] of 24.5%, a viability, T/C [8] of 15.2% and a viability, T/C [9] of 15.3%. For the same compound, the viability, T/C [10] was 10.4%, the viability, T/C [11] was 12% and the viability, T/C [12] was 14.6%. For the same compound, the viability, T/C [13] was 24.6%, the viability, T/C [14] was 16.7% and the viability, T/C [15] was 12.1%. For the same compound, the viability, T/C [16] was 10.6%, the viability, T/C [17] was 12% and the viability, T/C [18] was 12.1%. It also gave a viability, T/C [19] of 15.1%, a viability, T/C [20] of 11% and a viability, T/C [21] of 8.58%. It also gave a viability, T/C [22] of 9.85%, a viability, T/C [23] of 10.3% and a viability, T/C [24] of 8.46%. It also gave a viability, T/C [25] of 9.56%, a viability, T/C [26] of 3.21% and a viability, T/C [27] of 0.92%. For the same compound, the viability, T/C [28] was 0.43%, the viability, T/C [29] was 0.28% and the viability, T/C [30] was 3.89%. The viability, T/C [31] was 0.14%, the viability, T/C [32] was 2.35% and the viability, T/C [33] was 0.16%. It also gave a viability, T/C [34] of 0.27%, a viability, T/C [35] of 2.45% and a viability, T/C [36] of 0.15%.

Work on `CCCS(=O)(=O)Nc1ccc(F)c(C(=O)c2c[nH]c3ncc(-c4ccc(Cl)cc4)cc23)c1F` + Cc1cnc(CNC(=O)c2c(=O)c3ccc(N4CCCN(C)CC4)nc3n3c2sc2ccccc23)cn1 yielded an IC50 (second compound 0.0316 µM) of 9260 nM, an IC50 (second compound 0.1 µM) greater than 10000 nM and an IC50 (second compound 0.316 µM) of less than 31.6 nM. It also gave an IC50 (second compound 1 µM) of less than 31.6 nM, an IC50 (second compound 3.16 µM) of less than 31.6 nM and an IC50 (second compound 10 µM) of less than 31.6 nM. For the same compound, the viability, T/C [1] was 79.5%, the viability, T/C [2] was 63.5% and the viability, T/C [3] was 113%. For the same compound, the viability, T/C [4] was 113%, the viability, T/C [5] was 109% and the viability, T/C [6] was 46.8%. The viability, T/C [7] was 52.4%, the viability, T/C [8] was 69.6% and the viability, T/C [9] was 59.4%. It also gave a viability, T/C [10] of 64%, a viability, T/C [11] of 61.8% and a viability, T/C [12] of 39%. For the same compound, the viability, T/C [13] was 32%, the viability, T/C [14] was 37.3% and the viability, T/C [15] was 27.1%. For the same compound, the viability, T/C [16] was 32.6%, the viability, T/C [17] was 35.7% and the viability, T/C [18] was 26.4%. The viability, T/C [19] was 17.8%, the viability, T/C [20] was 18.2% and the viability, T/C [21] was 17.9%. The viability, T/C [22] was 18.9%, the viability, T/C [23] was 24.2% and the viability, T/C [24] was 16.8%. The viability, T/C [25] was 12.7%, the viability, T/C [26] was 14.3% and the viability, T/C [27] was 16.8%. It also gave a viability, T/C [28] of 16.1%, a viability, T/C [29] of 20.7% and a viability, T/C [30] of 0.32%. The viability, T/C [31] was 9.58%, the viability, T/C [32] was 16.2% and the viability, T/C [33] was 16.9%. For the same compound, the viability, T/C [34] was 18.7%, the viability, T/C [35] was 21.4% and the viability, T/C [36] was 0.33%.
